Read-outs that look alike come from different tables or passages of the source.
Tested on: panel of 290 distinct kinases (321 in the larger panel), excluding mutant variants
[1] = no asterisk: panel of 290 distinct kinases
[2] = asterisk: panel of 321 distinct kinases

Protocol: The liganded beads were blocked with excess biotin and washed with blocking buffer (SeaBlock (Pierce), 1% BSA, 0.05% Tween 20, 1 mM DTT) to remove unbound ligand and to reduce non-specific binding. […] Test compounds were prepared as 100× stocks in DMSO and rapidly diluted into the aqueous environment. DMSO was added to control assays lacking a test compound. Primary screen interactions were performed in polypropylene 384-well plates in a final volume of 34 μL, while Kd determinations were performed in polystyrene 96-well plates in a final volume of 135 μL. […] The kinase concentration in the eluates was measured by quantitative PCR. Each kinase was tested individually against each compound. KdS were determined using eleven serial threefold dilutions. A selectivity score, which is a quantitative measure of selectivity of a compound against a panel of enzymes, may be calculated for a compound by dividing the number of enzymes for which a compound meets a set criteria, (for example, a binding constant of 100 nM or less), by the total number of enzymes tested. […] (Note, for those compounds tested in a larger kinase panel, as indicated by an asterisk (*) next to the S35 score, the divisor is 321 (i.e. the larger panel contains 321 distinct kinases, excluding mutant variants.)).

Row | Structure (SMILES) | S35 [1] | S35 [2]
1 | COc1cc2ncnc(Oc3cccc(NC(=O)Nc4cc(C(C)(C)C)nn4-c4ccc(C)cc4)c3C)c2cc1OC [Ex 288, 1-(3-tert-butyl-1-p-tolyl-1H-pyrazol-5-yl)-3-(3-(6,7-dimethoxyquinazolin-4-yloxy)-2-methylphenyl)urea] | C (0.20 < C ≦ 0.40) | –
2 | COCCOc1cc2ncnc(Oc3cccc(NC(=O)Nc4cc(C(F)(F)F)n(-c5ccccc5)n4)c3)c2cc1OC [Ex 225, 1-{3-[6-methoxy-7-(2-methoxyethoxy)quinazolin-4-yloxy]phenyl}-3-[1-phenyl-5-(trifluoromethyl)-1H-pyrazol-3-yl]urea] | – | C* (0.20 < C ≦ 0.40)
3 | COCCOc1cc2ncnc(Oc3cccc(NC(=O)Nc4cc(C(C)(CF)CF)nn4-c4ccccc4)c3)c2cc1OC [Ex 228, 1-[3-(1,3-difluoro-2-methylpropan-2-yl)-1-phenyl-1H-pyrazol-5-yl]-3-{3-[6-methoxy-7-(2-methoxyethoxy)quinazolin-4-yloxy]phenyl}urea] | – | D* (D > 0.40)
4 | COCCOc1cc2ncnc(Oc3cccc(NC(=O)Nc4cc(C5CC5)no4)c3)c2cc1OC [Ex 214, 1-(3-cyclopropylisoxazol-5-yl)-3-(3-(6-methoxy-7-(2-methoxyethoxy)quinazolin-4-yloxy)phenyl)urea] | – | C* (0.20 < C ≦ 0.40)
5 | COc1cc2c(Sc3cccc(NC(=O)Nc4ccc(OC)c(C(F)(F)F)c4)c3)ncnc2cc1OCCN1CCOCC1 [Ex 249, 1-(4-methoxy-3-(trifluoromethyl)phenyl)-3-(3-(6-methoxy-7-(2-morpholinoethoxy)quinazolin-4-ylthio)phenyl)urea] | – | C* (0.20 < C ≦ 0.40)
6 | COc1cc2ncnc(Sc3cccc(NC(=O)Nc4cc(C(C)(C)C(F)(F)F)no4)c3)c2cc1OC [Ex 268, 1-(3-(6,7-dimethoxyquinazolin-4-ylthio)phenyl)-3-(3-(1,1,1-trifluoro-2-methylpropan-2-yl)isoxazol-5-yl)urea] | C (0.20 < C ≦ 0.40) | –
7 | COc1cc2ncnc(Oc3cccc(NC(=O)Nc4cc(C(C)(C)C(F)(F)F)no4)c3)c2cc1OC [Ex 267, 1-(3-(6,7-dimethoxyquinazolin-4-yloxy)phenyl)-3-(3-(1,1,1-trifluoro-2-methylpropan-2-yl)isoxazol-5-yl)urea] | C (0.20 < C ≦ 0.40) | –
8 | COCCOc1cc2ncnc(Sc3cccc(NC(=O)Nc4cc(C(C)(C)C)no4)c3)c2cc1OCCOC [Ex 247, 1-(3-(6,7-bis(2-methoxyethoxy)quinazolin-4-ylthio)phenyl)-3-(3-tert-butylisoxazol-5-yl)urea] | C (0.20 < C ≦ 0.40) | –
9 | COc1cc2ncnc(Sc3cccc(NC(=O)Nc4cc(C(C)(C)C)nn4-c4ccc(C)cc4)c3)c2cc1OC [Ex 275, 1-(3-tert-butyl-1-p-tolyl-1H-pyrazol-5-yl)-3-(3-(6,7-dimethoxyquinazolin-4-ylthio)phenyl)urea] | D (D > 0.40) | –
10 | COCCOc1cc2ncnc(Oc3cccc(NC(=O)Nc4ccc(C(F)(F)F)c(F)c4)c3)c2cc1OC [Ex 222, 1-(3-fluoro-4-(trifluoromethyl)phenyl)-3-(3-(6-methoxy-7-(2-methoxyethoxy)quinazolin-4-yloxy)phenyl)urea] | – | C* (0.20 < C ≦ 0.40)
11 | COc1cc2ncnc(Oc3cccc(NC(=O)Nc4cc(C(C)(C)C)nn4-c4cccc(C(F)(F)F)c4)c3)c2cc1OC [Ex 379, 1-(3-tert-butyl-1-(3-(trifluoromethyl)phenyl)-1H-pyrazol-5-yl)-3-(3-(6,7-dimethoxyquinazolin-4-yloxy)phenyl)urea] | D (D > 0.40) | –
12 | CCOc1cc2c(Oc3cccc(NC(=O)Nc4cc(C(C)(C)C(F)(F)F)on4)c3)ncnc2cc1OC [Ex 260, 1-(3-(6-ethoxy-7-methoxyquinazolin-4-yloxy)phenyl)-3-(5-(1,1,1-trifluoro-2-methylpropan-2-yl)isoxazol-3-yl)urea] | C (0.20 < C ≦ 0.40) | –
13 | COc1cc2ncnc(Oc3cc(NC(=O)Nc4cc(C(F)(F)F)nn4-c4ccccc4)ccc3F)c2cc1OC [Ex 397, 1-(3-(6,7-Dimethoxyquinazolin-4-yloxy)-4-fluorophenyl)-3-(1-phenyl-3-(trifluoromethyl)-1H-pyrazol-5-yl)urea] | C (0.20 < C ≦ 0.40) | –

From patent US9730937B2, “RAF kinase modulator compounds and methods of use thereof” (AMBIT BIOSCIENCES CORPORATION, priority 2008, dated 2017)
